Patent US8796001B2, “Metalloenzyme inhibitor compounds” (Viamet Pharmaceuticals, Inc., priority 2011, dated 2014)

Experiments:
[1] = system: Puccinia recondita tritici = Puccinia triticina (PUCCRT); test: Fungicidal activity vs. leaf rust on wheat plants; format: in vivo; conditions: wheat (Yuma) sprayed at 50 ppm, inoculated the following day, rated 7-9 days later, read-out: Puccinia Rating (% Disease Control @ 50 ppm)
How it was run: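 Wheat seedlings sprayed to wet with compound at 50 ppm in 10% acetone/90% Triton X100 water (~1500 L/ha), then inoculated next day with P. triticina spores and held humid overnight.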

[2] = system: Septoria tritici (ATCC 26517); test: Minimum Inhibitory Concentration (MIC) vs. Septoria tritici; format: cell-based; conditions: Zymoseptoria tritici, ATCC26517, 168 h; S. tritici ATCC 26517; 50% growth reduction; 7 days at 22 °C; read-out: Septoria Rating (MIC)
Description: C. Minimum Inhibitory Concentration (MIC) vs. Septoria Tritici Compounds were assessed for their ability to inhibit the growth of a common strain of the fungal plant pathogen Septoria tritici (ATCC 26517) using a procedure based on a Clinical and Laboratory Standards Institute (CLSI) microdilution assay protocol for filamentous fungi. Stock solutions of the test compounds and standards were prepared in DMSO at 6400 μg/mL. Each stock solution was used to prepare a 2-fold dilution series ranging from 16 to 0.016 μg/mL (total of 11 compound concentrations) in RPMI-1640 (Roswell Park Memorial Institute) medium containing 3-(N-morpholino)propanesulfonic acid (MOPS) buffer and 2% DMSO. A 100 μL aliquot of the dilutions was added to columns 1 (16 μg/mL compound) through 11 (0.016 μg/mL compound) of a 96-well microtiter plate. This format was replicated in a second row of the microtiter plate. Thus, each microtiter plate could include 11 concentrations of four test or control compounds replicated twice. A 100 μL aliquot of RPMI-1640/MOPS/2% DMSO medium was added to column 12 (no compound control) of the microtiter plate. A fresh culture of S. tritici was used to prepare a solution of approximately 5×10^4 colony-forming units per milliliter (cfu/mL) in RPMI/MOPS medium without DMSO. A 100 μL aliquot of this solution was added to all 96 wells in the microtiter plate. […]

| SMILES | pest or weed control at 50 ppm [1] [%] | MIC [2] [µg/mL] |
| --- | --- | --- |
| OC(Cn1cnnn1)(c1ccc(F)cc1F)C(F)(F)c1ccc(OCc2ccccc2)cn1 (stereo not shown) [Compound 30, 1-(5-(Benzyloxy)pyridin-2-yl)-2-(2,4-difluorophenyl)-1,1-difluoro-3-(1H-tetrazol-1-yl)propan-2-ol] | 80 to 100 | ≤ 0.5 |
| CC#CCOc1ccc(C(F)(F)C(O)(Cn2cnnn2)c2ccc(F)cc2F)nc1 (stereo not shown) [Compound 32, 1-(5-(But-2-yn-1-yloxy)pyridin-2-yl)-2-(2,4-difluorophenyl)-1,1-difluoro-3-(1H-tetrazol-1-yl)propan-2-ol] | – | ≤ 0.5 |
| OC(Cn1cnnn1)(c1ccc(F)cc1F)C(F)(F)c1ccc(OCC(F)c2ccc(OC(F)F)cc2)cn1 (stereo not shown) [Compound 124, 1-(5-(2-(4-(difluoromethoxy)phenyl)-2-fluoroethoxy)pyridin-2-yl)-2-(2,4-difluorophenyl)-1,1-difluoro-3-(1H-tetrazol-1-yl)propan-2-ol] | 80 to 100 | – |
